“Also recorded” adds a separate entry of the source.
Experiments:
Type in all cases: cell-based, human
PANC-1 cells [1] = assay: Matrigel cell invasion assay, sham and 14-3-3σ overexpressing PANC-1 clones; conditions: 20 hours
Experimental: (§1) Cell invasion was measured as reported previously, with some modification (Rowland-Goldsmith, M. A. et al. 2001. Clin. Cancer Res. 7:2931-2940). Briefly, cells were suspended in 500 μL of serum-free medium (0.1% BSA) and placed onto the upper compartment of Matrigel-coated transwell chambers (8 μm pore sized, BioCoat Matrigel Invasion Chambers, BD Biosciences, San Jose, Calif.). The lower compartment was filled with 750 μL of medium containing serum free media in the absence or presence of the respective growth factors. After 18-20 hours, cells on the upper surface of the filter were carefully removed with a cotton swab and the membranes were fixed in methanol. The cells that had migrated through the membrane to the lower surface of the filter were stained with toluidine blue (Fisher Scientific, Fair Lawn, N.J.) and counted using a light microscope.

T3M4 cells [2] = assay: Matrigel cell invasion assay, shRNA infected T3M4 cells; conditions: 18 hours
Experimental: as §1

PANC-1 cells [3] = assay: cisplatinum induced apoptosis, immunoblot of cleaved PARP and cleaved caspase-3, PANC-1 clones; conditions: 10 μg/mL cisplatinum; 24 hours
Experimental: (§2) Sham or 14-3-3σ transfected PANC-1 cells were incubated for 24 hours in complete medium in the absence or presence of 10 μg/mL of cisplatinum. Scrambled or 14-3-3σ specific shRNA infected T3M4 cells were incubated in complete medium for 24 hours that was supplemented with 10 μg/mL cisplatinum for the initial 2 or 6 hours, or the entire 24 hours. Both floating and adherent cells were then collected and lysed in the buffer containing protease inhibitors, subjected to 10% SDS-PAGE, and immunoblotted with specific antibodies against cleaved Poly (ADP-ribose) Polymerase (PARP) and cleaved caspase-3 (Cell Signaling Technology, Danvers, Mass.).

T3M4 cells [4] = assay: cisplatinum induced apoptosis, immunoblot of cleaved PARP and cleaved caspase-3, shRNA infected T3M4 cells; conditions: cisplatinum 10 νg/mL for 2, 6, or 24 hours
Experimental: as §2

PANC-1 cells [5] = assay: MTT assay, survival of PANC-1 clones with cisplatinum; conditions: 10 μg/mL cisplatinum; 48 hours
Experimental: Sham-transfected PANC-1 cells and 14-3-3σ transfected clones (1×10^4) were plated in 96-well plates (six wells per sample). Cells were allowed to attach and grow for 48 hours in complete medium, and then treated with complete medium in the absence or presence of 10 μg/mL of cisplatinum (Sigma) for 48 hours, followed by the addition of MTT (3-[4,5-dimethylthiazol-2-yl]-2,5-diphenyltetrazolium bromide) (Sigma) at a final concentration 0.55 μg/mL. After an additional 4 hour incubation, absorbance at 570 nm was determined, with a reference of 650 nm, using a Emax precision microplate reader (Molecular devices, Sunnyvale, Calif.), as previously reported (Arnold, N. B. et al. 2004. Cancer Res. 64:3599-3606). It was previously determined that in pancreatic cancer cell lines the MTT assay correlates closely with cell growth as determined by cell counting and by assessing [^3H]thymidine incorporation (Raitano, A. B. and M. Korc. 1990. J. Biol. Chem. 265:10466-10472; Baldwin, R. L. and M. Korc. 1993. Growth Fact. 8:23-34).

PANC-1 cells [6] = assay: in vitro wound-healing (migration) assay, sham and 14-3-3σ overexpressing PANC-1 clones; conditions: EGF 1 nmol/L; serum free media; 24 hours
Experimental: (§3) To assess the motility properties, in vitro wound-healing assays or migration assays were performed. Cells were grown to confluence in 6-well tissue culture plates, serum starved overnight, and the monolayer was scratched with a 200 μL pipette tip generating two parallel wounds. The scratched wells were washed to remove cell debris and incubated for the next 24 hours in serum free media in the absence or presence 1 nmol/L EGF with or without the Src family kinase inhibitor PP2 (4-amino-5-(4-chlorophenyl)-7-(t-butyl)pyrazolo[3,4-d]pyrimidine) (Alexis, La Jolla, Calif.). To monitor cell migration, photographs were taken of each well at five marked locations under 40× magnification immediately after wounding (t0) and again 24 hours after wounding (t24), using an inverted microscope fitted with a digital camera (Nikon Diaphot 300, Nikon, Japan). The wound area of five matched pictures at t0 and t24 from each well were then measured using the ImageJ software (NIH, Bethedsa, Md.), and the percentage change in the wound area was calculated.

T3M4 cells [7] = assay: in vitro wound-healing (migration) assay, shRNA infected T3M4 cells; conditions: EGF 1 nmol/L; 24 hours; control shRNA, sh1 or sh2 infected cells; percentage change in wound area
Experimental: as §3

Molecule: IGF-1: IGF-1 growth factor used as chemoattractant at 1 nmol/L
- invasion of PANC-1 clones overexpressing 14-3-3σ compared to sham cells (PANC-1 cells [1]; IGF-1 1 nmol/L): significantly increased
- IGF-1-mediated invasion in presence of endogenously high levels of 14-3-3σ (T3M4 cells [2]; IGF-1 1 nmol/L, non-silenced T3M4): robust
- IGF-1 effect on invasion in T3M4 cells in which 14-3-3σ was silenced (T3M4 cells [2]; IGF-1 1 nmol/L, sh1 or sh2 infected): markedly attenuated; also recorded: completely suppressed

Molecule: N.N.[Cl][Pt][Cl] [cisplatinum]
- PARP cleavage in 14-3-3σ overexpressing clones compared with sham transfected cells (PANC-1 cells [3]): attenuated
- generation of cleaved caspase-3 in 14-3-3σ overexpressing clones compared with sham transfected cells (PANC-1 cells [3]): markedly decreased
- apoptosis (PARP cleavage, caspase-3 activation) in 14-3-3σ silenced cells compared to non-silenced cells (T3M4 cells [4]): increased apoptosis
- survival of 14-3-3σ overexpressing clones compared with Sham (MTT) (PANC-1 cells [5]): significant (p<0.01) increase

Molecule: EGF: EGF growth factor, ligand of the EGF receptor, added at 1 nmol/L (NSDSECPLSHDGYCLHDGVCMYIEALDKYACNCVVGYIGERCQYRDLKWWELR; UniProt P01133 971-1023, looked up)
- motility of 14-3-3σ overexpressing cells (PANC-1 cells [6]): did not cause an additional increase in motility
- motility of sham-transfected cells (PANC-1 cells [6]): slight but significant increase
- EGF stimulated motility (T3M4 cells [7]): about 50%
- invasion of sham transfected cells (PANC-1 cells [1]; EGF 1 nmol/L): not statistically significant
- invasion of 14-3-3σ overexpressing clones (PANC-1 cells [1]; EGF 1 nmol/L, clones C1 and C7): markedly enhanced
- invasion in 14-3-3σ downregulated cells (sh2 infected) compared to control shRNA infected cells (T3M4 cells [2]; EGF 1 nmol/L): marked increase

Molecule: C[S+]([O-])c1ccc(-c2nc(-c3ccncc3)c(-c3ccc(F)cc3)[nH]2)cc1 (stereo not drawn) [SB203580, reference compound]
- effect on EGF-mediated invasion in 14-3-3σ overexpressing clones (PANC-1 cells [1]; EGF 1 nmol/L, LY 294002 5 μmol/L, SB 203580 10 μmol/L, PP2 10 μmol/L, clone C1): suppressed; also recorded: completely blocked

Molecule: COc1cc2ncnc(Nc3cccc(Br)c3)c2cc1OC [AG 1517, reference compound]
- effect on EGF induced invasion in 14-3-3σ downregulated cells (sh2 infected) (T3M4 cells [2]; EGF 1 nmol/L, AG 1517 1 μmol/L, PP2 10 μmol/L): suppressed

From patent US20110152358A1, “Compositions and Methods for Diagnosis and Treatment of Pancreatic Ductal Cancer” (priority 2008, published 2011)
